Laboratory results reported in the NIST ThermoML archive (doi:10.1016/j.jct.2005.12.004).
± gives the expanded uncertainty stated by the source.

Columns and labels:
[1] = DTA
[2] = Molar enthalpy of transition or fusion; conditions: DSC

Row | SMILES | Normal melting temperature ([1]; Crystal) [°C] | Molar enthalpy of transition or fusion ([2]; Crystal) [kJ/mol] | Normal melting temperature ([1]; Crystal 1) [°C] | Triple point temperature ([1]; Crystal 2) [K] | Molar enthalpy of transition or fusion ([2]; Crystal 1) [kJ/mol] | Molar enthalpy of transition or fusion ([2]; Crystal 2) [kJ/mol]
1 | NCCCCCCCCCCCCN [1,12-dodecanediamine] | 68.69 ± 0.53 | 67 ± 1.5 | – | – | – | –
2 | c1ccc(-c2ccccc2)cc1 [biphenyl] | 69.22 ± 0.53 | 19.7 ± 0.9 | – | – | – | –
3 | NCCCCCCCCCN [1,9-diaminononane] | – | – | 34.62 ± 0.53 | 301.14 ± 0.53 | 35.4 ± 1.1 | 8.56 ± 0.84

Continued, values first:

Row | Normal melting temperature ([1]; Crystal) [°C] | Molar enthalpy of transition or fusion ([2]; Crystal) [kJ/mol] | Normal melting temperature ([1]; Crystal 1) [°C] | Triple point temperature ([1]; Crystal 2) [K] | Molar enthalpy of transition or fusion ([2]; Crystal 1) [kJ/mol] | Molar enthalpy of transition or fusion ([2]; Crystal 2) [kJ/mol] | SMILES
4 | 51.73 ± 0.53 | 50.5 ± 1.2 | – | – | – | – | NCCCCCCCCN [1,8-diaminooctane]
5 | 38.5 ± 0.53 | 39.4 ± 1.1 | – | – | – | – | NCCCCCCN [1,6-hexanediamine]
